In paper PMC9021956, “Screening and Identification of HBV Epitopes Restricted by Multiple Prevalent HLA-A Allotypes” (Frontiers in Immunology, 2022):
pIC50: −log10 of the molar value.

Tests used:
HLA-A2402 = HLA-A2402 (Homo sapiens, UniProt P04439, D101N/D140Y/D185E/E176V/E190D/F33S/G103R/G107R/I119L/I121M/I306V/K335N/L105A/L180Q/L300P/N151K/N90K/Q86E/Q94H/R106L/R138H/R89G/T104I/T345S/V100E/W191G/Y123F); test: cell-based; type: binding
Summary of the method: (§1)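 Affinity is expressed as IC50 for displacement of the FITC-labeled reference peptide from HLA-A on transfected HMy2.CIR cells. Cell-surface molecules were first emptied by brief acid treatment (pH 3.3) and then refolded with β2-m at 1 μg/mL in the presence of competitor.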

HLA-A3101 = HLA-A3101 (Homo sapiens, UniProt P04439, A270S/D185E/E176V/E277Q/F33T/G231S/G80R/H175R/I121M/I218V/I322F/K168Q/L300P/L318F/M331R/P217A/Q94H/R138Q/T323A/T345S/T97I/V358M); test: Peptide competitive binding assay, transfected HMy2.CIR cells, reference ATFQFK(FITC)VER; conditions: 24 hours, flow cytometry
Summary of the method: as §1

CC(C)C[C@H](NC(=O)[C@@H](NC(=O)[C@H](Cc1ccccc1)NC(=O)[C@@H](NC(=O)[C@@H](N)CCCCN)C(C)C)C(C)C)C(=O)NCC(=O)NCC(=O)N[C@@H](CS)C(=O)N[C@@H](CCCNC(=N)N)C(=O)O [Epitope P63]
pIC50 (HLA-A2402): < 4.82
inhibition at 5 µM (HLA-A2402; HLA-A2402 HMy2.CIR cells, competitor peptide 5μM, 24 hours, flow cytometry): 9.68%
inhibition at 15 µM (HLA-A2402; HLA-A2402 HMy2.CIR cells, competitor peptide 15μM, 24 hours, flow cytometry): 4.38%
inhibition at 5 µM (HLA-A3101; HLA-A3101 HMy2.CIR cells, competitor peptide 5μM): 35.4%
inhibition at 15 µM (HLA-A3101; HLA-A3101 HMy2.CIR cells, competitor peptide 15μM): 55.4%
Affinity (HLA-A3101; transfected HMy2.CIR cells expressing HLA-A3101, unlabeled peptide competes with FITC-labeled reference peptide, class by IC50): inter
